Drawing on patent US9353081B2, “Bicyclic dihydroquinoline-2-one derivatives” (Hoffmann-La Roche Inc., priority 2011, dated 2016), this text covers EC50 for 22 compounds.

Usually EC50 stands for the concentration that produces a half-maximal response. Low values mean higher potency in that assay, high ones lower potency in that assay.

SMILES strings stand for the structures. Where a name gives a salt, the structure may show the parent alone.

Assay [1] has as its target human CYP11B2 (Homo sapiens (Human), UniProt P19099). Kind of assay: G-402 cellular enzyme assay, human CYP11B2 (aldosterone release, HTRF). Type of assay: cell-based. Conditions: G-402 cells expressing human CYP11B2; 1 μM Deoxycorticosterone. The text has this:
(§1) Specifically we developed stable G-402 cells expressing ectopically human CYP11B1, human CYP11B2, human CYP11A1, cynomolgus CYP11B1 or cynomolgus CYP11B2 enzyme activity.
(§2) The expression plasmids contains the ORF for either human/cyno CYP11B1 or CYP11B2 under the control of a suitable promoter (CMV-promoter) and a suitable resistance marker (neomycin). Using standard techniques the expression plasmid is transfected into G-402 cells and these cells are then selected for expressing the given resistance markers. Individual cell-clones are then selected and assessed for displaying the desired enzymatic activity using 11-Deoxycorticosterone (Cyp11B2) or 11-Deoxycortisol (Cyp11B1) as a substrate.
(§3) For assaying enzymatic activity, cells were plated onto 96 well plates and incubated for 16 h. An aliquot of the supernatant is then transferred and analyzed for the concentration of the expected product (Aldosterone for CYP11B2; Cortisol for CYP11B1). The concentrations of these steroids can be determined using HTRF assays from CisBio analyzing either Aldosterone or Cortisol.
(§4) Inhibition of the release of produced steroids can be used as a measure of the respective enzyme inhibition by test compounds added during the cellular enzyme assay. The dose dependent inhibition of enzymatic activity by a compound is calculated by means of plotting added inhibitor concentrations x-axes) vs. measured steroid/product level (y-axes). The inhibition is then calculated by fitting the following 4-parameter sigmoidal function (Morgan-Mercer-Flodin (MMF) model) to the raw data points using the least squares method:
(§5) [formula] wherein, A is the maximum y value, B is the EC50 factor determined using XLFit, C is the minimum y value and D is the slope value.
(§6) EC50 values for compounds claimed herein were tested with the G402-based assay system described. Cyp11B2 enzyme activity was tested in presence of 1 μM Deoxycorticosterone and variable amounts of inhibitors; Cyp11B1 enzyme activity was tested in presence of 1 μM Deoxycortisol and variable amounts of inhibitors.

Assay [2] addresses human CYP11B1 (Homo sapiens (Human), UniProt P15538). Kind of assay: G-402 cellular enzyme assay, human CYP11B1 (cortisol release, HTRF). Conditions: G-402 cells expressing human CYP11B1; 1 μM Deoxycortisol. It counts as cell-based.
From the text: as §1, §2, §3, §4, §5, §6
(In general: In TR-FRET formats the signal depends on donor and acceptor labels being close together.)

human CYP11B2, sequence (P19099 25-503): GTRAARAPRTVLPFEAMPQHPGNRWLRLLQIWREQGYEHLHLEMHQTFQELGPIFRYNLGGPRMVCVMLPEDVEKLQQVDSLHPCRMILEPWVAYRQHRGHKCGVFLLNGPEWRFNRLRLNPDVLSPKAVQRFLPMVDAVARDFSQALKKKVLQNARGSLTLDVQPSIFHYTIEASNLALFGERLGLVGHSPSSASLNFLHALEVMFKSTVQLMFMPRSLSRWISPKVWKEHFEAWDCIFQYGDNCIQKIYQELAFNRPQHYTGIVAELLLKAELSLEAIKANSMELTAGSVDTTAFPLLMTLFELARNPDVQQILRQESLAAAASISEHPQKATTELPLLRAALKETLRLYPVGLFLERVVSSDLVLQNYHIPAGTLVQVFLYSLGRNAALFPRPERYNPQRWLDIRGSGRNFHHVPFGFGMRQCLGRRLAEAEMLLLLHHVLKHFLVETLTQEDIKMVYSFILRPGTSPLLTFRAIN
human CYP11B1, sequence (P15538 25-503): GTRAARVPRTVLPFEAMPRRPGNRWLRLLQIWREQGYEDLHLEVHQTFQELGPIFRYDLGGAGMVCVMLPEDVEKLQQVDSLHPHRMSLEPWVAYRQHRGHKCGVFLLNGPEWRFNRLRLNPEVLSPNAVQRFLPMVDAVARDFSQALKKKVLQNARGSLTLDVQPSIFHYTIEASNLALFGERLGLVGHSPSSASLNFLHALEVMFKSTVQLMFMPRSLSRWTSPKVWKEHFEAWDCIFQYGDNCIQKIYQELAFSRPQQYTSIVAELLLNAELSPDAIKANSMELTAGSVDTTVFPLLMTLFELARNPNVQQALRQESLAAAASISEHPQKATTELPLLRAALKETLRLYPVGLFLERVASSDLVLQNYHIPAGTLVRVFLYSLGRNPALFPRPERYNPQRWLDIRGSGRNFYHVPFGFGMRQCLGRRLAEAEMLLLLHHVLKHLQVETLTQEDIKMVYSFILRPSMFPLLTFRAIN

`CN1C(=O)CCc2cc(-c3cncc4c3CCC[C@H]4NC(=O)C3CC3)ccc21` [Example 64, Cyclopropanecarboxylic acid [(R)-4-(1-methyl-2-oxo-1,2,3,4-tetrahydro-quinolin-6-yl)-5,6,7,8-tetrahydro-isoquinolin-8-yl]-amide]: the results for the concentration for a half-maximal effect (EC50) in assay [1] and in assay [2] were 46.2 nM and 2360 nM, respectively.
As for `CCC(=O)NC1CCCc2c(-c3ccc4c(c3)CCC(=O)N4C)cncc21` (single isomer, unassigned; (-)) [Example 2, (−)-(R or S)—N-(4-(1-Methyl-2-oxo-1,2,3,4-tetrahydroquinolin-6-yl)-5,6,7,8-tetrahydroisoquinolin-8-yl)propionamide], the results for the EC50 in assay [1] and in assay [2] were 1020 nM and 12100 nM, respectively.
In the case of `CC(O)C(=O)NC1CCCc2c(-c3ccc4c(c3)CCC(=O)N4C)cncc21` [Example 15, (2R,S)-2-Hydroxy-N-[(4R,S)-4-(1-methyl-2-oxo-1,2,3,4-tetrahydroquinolin-6-yl)-5,6,7,8-tetrahydroisoquinolin-8-yl]propanamide], the EC50 is 77.3 nM in assay [1] and 574 nM in assay [2].
As for `CCS(=O)(=O)NC1CCCc2c(-c3cc(F)c4c(c3)CCC(=O)N4C)cncc21` (racemic) [Example 36, (rac)-Ethanesulfonic acid [4-(8-fluoro-1-methyl-2-oxo-1,2,3,4-tetrahydro-quinolin-6-yl)-5,6,7,8-tetrahydro-isoquinolin-8-yl]-amide], the EC50 in assay [1] stood at 239 nM; in assay [2] it was 20700 nM.
Regarding `CCS(=O)(=O)NC1CCCc2c(-c3cc4c(cc3F)N(C)C(=O)CC4)cncc21` (single isomer, unassigned; (-)) [Example 31, (−)-(S or R)-Ethanesulfonic acid [4-(7-fluoro-1-methyl-2-oxo-1,2,3,4-tetrahydro-quinolin-6-yl)-5,6,7,8-tetrahydro-isoquinolin-8-yl]-amide], the EC50 was found to be 1040 nM in assay [1] and 14500 nM in assay [2].
Consider `CCC(=O)N[C@@H]1c2cncc(-c3cc4c(cc3F)N(C)C(=O)CC4)c2CC[C@H]1F` (single isomer, unassigned) [Example 56, (−)-N-[(7R,8R or 7S,8S)-7-Fluoro-4-(7-fluoro-1-methyl-2-oxo-1,2,3,4-tetrahydro-quinolin-6-yl)-5,6,7,8-tetrahydro-isoquinolin-8-yl]-propionamide], for which the EC50 in assay [1] amounted to 2780 nM; in assay [2], 14900 nM.
As to `CCS(=O)(=O)NC1CCc2c(-c3ccc4c(c3)CCC(=O)N4C)cncc21` (racemic) [Example 10, (rac)-N-(4-(1-Methyl-2-oxo-1,2,3,4-tetrahydroquinolin-6-yl)-6,7-dihydro-5H-cyclopenta[c]pyridin-7-yl)ethanesulfonamide], the half-maximal effective concentration (EC50) was 59 nM in assay [1] and 4170 nM in assay [2].
On the same counts, the results for `CN1C(=O)CCc2cc(-c3cncc4c3CCC[C@H]4NC(=O)c3ncccc3Cl)ccc21` [Example 62, 3-Chloro-pyridine-2-carboxylic acid [(R)-4-(1-methyl-2-oxo-1,2,3,4-tetrahydro-quinolin-6-yl)-5,6,7,8-tetrahydro-isoquinolin-8-yl]-amide] are 5.3 nM and 558 nM.
The corresponding values for `CCC(=O)N[C@H]1c2cncc(-c3cc4c(cc3F)N(C)C(=O)CC4)c2CC[C@H]1C` (single isomer, unassigned) [Example 48, (+)-N-[(7R,8R or 7S,8S)-4-(7-Fluoro-1-methyl-2-oxo-1,2,3,4-tetrahydro-quinolin-6-yl)-7-methyl-5,6,7,8-tetrahydro-isoquinolin-8-yl]-propionamide] are 26.1 nM and 2880 nM.
The corresponding values for `CCC(=O)N[C@@H]1c2cncc(-c3cc4c(cc3F)N(C)C(=O)CC4)c2CC[C@@H]1C` (single isomer, unassigned) [Example 43, (−)-N-[(7S,8S or 7R,8R)-4-(7-Fluoro-1-methyl-2-oxo-1,2,3,4-tetrahydro-quinolin-6-yl)-7-methyl-5,6,7,8-tetrahydro-isoquinolin-8-yl]-propionamide] are 452 nM and 32000 nM.
For the compound `CCC(=O)NC1CCCc2c(-c3ccc4c(c3)CCC(=O)N4C)cncc21` (single isomer, unassigned; (+)) [Example 3, (+)-(S or R)—N-(4-(1-Methyl-2-oxo-1,2,3,4-tetrahydroquinolin-6-yl)-5,6,7,8-tetrahydroisoquinolin-8-yl)propionamide], the values for the concentration for a half-maximal effect (EC50) in assay [1] and in assay [2] were 14 nM and 980 nM, respectively.
In the case of `CN1C(=O)CCc2cc(-c3cncc4c3CCC[C@H]4NS(=O)(=O)C3CC3)ccc21` [Example 66, Cyclopropanesulfonic acid [(R)-4-(1-methyl-2-oxo-1,2,3,4-tetrahydro-quinolin-6-yl)-5,6,7,8-tetrahydro-isoquinolin-8-yl]-amide], the EC50 was found to be 35.5 nM in assay [1] and 319 nM in assay [2].
The corresponding values for `CCC(=O)N[C@H]1c2cncc(-c3cc4c(cc3F)N(C)C(=O)CC4)c2CC[C@@H]1F` (single isomer, unassigned) [Example 54, (+)-N-[(7S,8S or 7R,8R)-7-Fluoro-4-(7-fluoro-1-methyl-2-oxo-1,2,3,4-tetrahydro-quinolin-6-yl)-5,6,7,8-tetrahydro-isoquinolin-8-yl]-propionamide] are 38.8 nM and 2390 nM.
As to `CCC(=O)N[C@H]1c2cncc(-c3ccc4c(c3)CCC(=O)N4C)c2CC[C@H]1C` (single isomer, unassigned) [Example 49, (+)-N-[(7R,8R or 7S,8S)-7-Methyl-4-(1-methyl-2-oxo-1,2,3,4-tetrahydro-quinolin-6-yl)-5,6,7,8-tetrahydro-isoquinolin-8-yl]-propionamide], the concentration for a half-maximal effect (EC50) in assay [1] was determined as 44.2 nM; in assay [2] it was 3950 nM.
On the same counts, the results for `CCS(=O)(=O)NC1CCCc2c(-c3ccc4c(c3)CCC(=O)N4C)cncc21` (racemic) [Example 4, (rac)-N-(4-(1-Methyl-2-oxo-1,2,3,4-tetrahydroquinolin-6-yl)-5,6,7,8-tetrahydroisoquinolin-8-yl)ethanesulfonamide] are 97 nM and 4920 nM.
The corresponding values for `CCC(=O)N[C@@H]1c2cncc(-c3ccc4c(c3)CCC(=O)N4C)c2CC[C@@H]1F` (single isomer, unassigned) [Example 51, (−)-N-[(7S,8R or 7R,8S)-7-Fluoro-4-(1-methyl-2-oxo-1,2,3,4-tetrahydro-quinolin-6-yl)-5,6,7,8-tetrahydro-isoquinolin-8-yl]-propionamide] are 1470 nM and 32300 nM.
The corresponding values for `CCS(=O)(=O)NC1CCc2c(-c3cc4c(cc3F)N(C)C(=O)CC4)cncc21` (racemic) [Example 25, (rac)-N-(4-(7-Fluoro-1-methyl-2-oxo-1,2,3,4-tetrahydroquinolin-6-yl)-6,7-dihydro-5H-cyclopenta[c]pyridin-7-yl)ethanesulfonamide] are 33.4 nM and 2980 nM.
For `CCC(=O)NC1CCCc2c(-c3cc4c(cc3F)N(C)C(=O)CC4)cncc21` (single isomer, unassigned; (+)) [Example 30, (+)-(R or S)—N-[4-(7-fluoro-1-methyl-2-oxo-1,2,3,4-tetrahydro-quinolin-6-yl)-5,6,7,8-tetrahydro-isoquinolin-8-yl]-propionamide], the EC50 amounted to 30 nM in assay [1] and 3680 nM in assay [2].
Turning to `CN1C(=O)CCc2cc(-c3cncc4c3CCCN4CCN)ccc21` [Example 12, 6-[1-(2-Amino-ethyl)-1,2,3,4-tetrahydro-[1,7]naphthyridin-5-yl]-1-methyl-3,4-dihydro-1H-quinolin-2-one hydrochloride], the concentration for a half-maximal effect (EC50) in assay [1] turned out to be 4 nM; in assay [2] it was 1880 nM.
On the same counts, the results for `CCC(=O)NC1CCCc2c(-c3cc4c(cc3F)N(C)C(=O)CC4)cncc21` (single isomer, unassigned; (-)) [Example 29, (−)-(S or R)—N-[4-(7-Fluoro-1-methyl-2-oxo-1,2,3,4-tetrahydro-quinolin-6-yl)-5,6,7,8-tetrahydro-isoquinolin-8-yl]-propionamide] are 1790 nM and 42600 nM.
For the compound `CCC(=O)NCCN1CCCc2c(-c3ccc4c(c3)CCC(=O)N4C)cncc21` [Example 13, N-{2-[5-(1-Methyl-2-oxo-1,2,3,4-tetrahydro-quinolin-6-yl)-3,4-dihydro-2H-[1,7]naphthyridin-1-yl]-ethyl}-propionamide], the concentration giving a half-maximal response (EC50) in assay [1] was 14 nM; in assay [2] it was 1810 nM.
On the same counts, the results for `CN1C(=O)CCc2cc(-c3cncc4c3CCC[C@H]4NS(C)(=O)=O)ccc21` [Example 65, N—[(R)-4-(1-Methyl-2-oxo-1,2,3,4-tetrahydro-quinolin-6-yl)-5,6,7,8-tetrahydro-isoquinolin-8-yl]-methanesulfonamide] are 17 nM and 1930 nM.
